Measured values from US12310929B2, “Use of rasagiline for the treatment of restless legs syndrome” (TEVA PHARMACEUTICAL INDUSTRIES, LTD., priority 2006, dated 2025).
Where two headings read alike, the source gives them in different places.

Legend:
RLS subjects [1] = details: for IRLS Total (Absolute Change) Mean / IRLS Total (Absolute Change) Median / IRLS Total (Percent Change) Mean / IRLS Total (Percent Change) Median / IRLS Total Mean / IRLS Total Median: rasagiline 1 mg/day oral
Procedure: (§1) This was the first clinical study in which rasagiline was administered to RLS subjects. The dosage regimen of 1 mg/day rasagiline was chosen based on the optimal dosage regimen for the symptomatic treatment of PD. […] Therefore, in the event that a subject could not tolerate the 1 mg daily dose of rasagiline, a daily dose of 0.5 mg rasagiline was permitted. Rasagiline was administered orally as a tablet. Both the 1 mg and 0.5 mg rasagiline tablets were beveled round tablets, flat, white to off-white, scored on one side, plain on the other side. Teva Pharmaceutical Industries Ltd. was responsible for the manufacture and primary packaging of study medications according to current Good Manufacturing Practice (cGMP) principles and guidelines applicable to investigational medicinal products.
IRLS (International Restless Legs Scale)
The IRLS scale is comprised of 10 items designed to assess the severity of sensory and motor symptoms, sleep disturbance, daytime somnolence, and impact on activities of daily living and mood associated with RLS. All items receive a grade in the range 0 to 4 (0=absence of a problem, 4=very severe problem) giving a maximum score of 40.
The investigator scored subjects on the IRLS at all scheduled study visits. The primary efficacy endpoint was based on the change from baseline to weeks 2, 4, and 8 in IRLS scores.
Each of 10 items were graded on a scale between 0 and 4 where 0 denotes the absence of a problem, and 4 a very severe problem.

RLS subjects [2] = details: for IRLS QoL Total (Absolute Change) Mean / IRLS QoL Total (Absolute Change) Median / IRLS QoL Total (Percent Change) Mean / IRLS QoL Total (Percent Change) Median / IRLS QoL Total Mean / IRLS QoL Total Median: rasagiline 1 mg/day oral
Procedure: as §1
The Restless Leg Syndrome Quality of Life questionnaire (RLS QoL) assesses the impact of RLS on daily life, emotional well-being, social life and work life. It is an 18-item questionnaire with a total score ranging 0 to 100. […] The lower the score, the greater the impact of RLS on quality of life.
The RLS QoL questionnaire was completed by the investigator at the baseline and Week 4, and 8 visits. The change from baseline to each post-baseline study visit was calculated as an additional efficacy endpoint.

[3] = tested on: early Parkinson's disease subjects; details: rasagiline-treated subjects; cited from earlier work
[4] = tested on: patients with moderate to severe primary Restless Legs Syndrome; experiment: Placebo-controlled, double-blind, randomized clinical test in primary RLS (Example 8)

C#CCN[C@@H]1CCc2ccccc21 [rasagiline, R-(+)-N-propargyl-1-aminoindan]
IRLS Total (Absolute Change) Mean (RLS subjects [1]; VISIT WEEK 1, N=2): −3.00
IRLS Total (Absolute Change) Median (RLS subjects [1]; VISIT WEEK 1, N=2): −3.00
IRLS Total (Percent Change) Mean (RLS subjects [1]; VISIT WEEK 1, N=2): −11.54%
IRLS Total (Percent Change) Median (RLS subjects [1]; VISIT WEEK 1, N=2): −11.54%
IRLS Total Mean (RLS subjects [1]; VISIT WEEK 1, N=2): 29.00
IRLS Total Median (RLS subjects [1]; VISIT WEEK 1, N=2): 29.00
IRLS Total (Absolute Change) Mean (RLS subjects [1]; VISIT WEEK 3, N=1): −14.00
IRLS Total (Absolute Change) Median (RLS subjects [1]; VISIT WEEK 3, N=1): −14.00
IRLS Total (Percent Change) Mean (RLS subjects [1]; VISIT WEEK 3, N=1): −53.85%
IRLS Total (Percent Change) Median (RLS subjects [1]; VISIT WEEK 3, N=1): −53.85%
IRLS Total Mean (RLS subjects [1]; VISIT WEEK 3, N=1): 12.00
IRLS Total Median (RLS subjects [1]; VISIT WEEK 3, N=1): 12.00
IRLS Total (Absolute Change) Mean (RLS subjects [1]; VISIT WEEK 4, N=2): −6.50
IRLS Total (Absolute Change) Median (RLS subjects [1]; VISIT WEEK 4, N=2): −6.50
IRLS Total (Percent Change) Mean (RLS subjects [1]; VISIT WEEK 4, N=2): −25.00%
IRLS Total (Percent Change) Median (RLS subjects [1]; VISIT WEEK 4, N=2): −25.10%
IRLS Total Mean (RLS subjects [1]; VISIT WEEK 4, N=2): 25.50
IRLS Total Median (RLS subjects [1]; VISIT WEEK 4, N=2): 25.50
mean IRLS Rating Scale score (RLS subjects [1]; after 2 weeks, 2 subjects, baseline mean 32): 29
IRLS Rating Scale score (RLS subjects [1]; at 4 weeks, one subject): 13
decrease from baseline in IRLS Rating Scale score (RLS subjects [1]; at 4 weeks, one subject): 50%
IRLS score (RLS subjects [1]; by 8 weeks, remaining subject): 12
decrease from baseline in IRLS score (RLS subjects [1]; by 8 weeks, remaining subject): 54%
effect on the symptoms of RLS (RLS subjects [1]; in at least a subset of RLS patients): clinically significant effect
IRLS Rating Scale score (RLS subjects [1]; week 4, subject who discontinued, unchanged from baseline): 38
IRLS QoL Total (Absolute Change) Mean (RLS subjects [2]; VISIT WEEK 4, N=2): 16.67
IRLS QoL Total (Absolute Change) Median (RLS subjects [2]; VISIT WEEK 4, N=2): 16.67
IRLS QoL Total (Percent Change) Mean (RLS subjects [2]; VISIT WEEK 4, N=2): 35.19%
IRLS QoL Total (Percent Change) Median (RLS subjects [2]; VISIT WEEK 4, N=2): 35.19%
IRLS QoL Total Mean (RLS subjects [2]; VISIT WEEK 4, N=2): 62.92
IRLS QoL Total Median (RLS subjects [2]; VISIT WEEK 4, N=2): 62.92
IRLS QoL Total (Absolute Change) Mean (RLS subjects [2]; VISIT WEEK 8, N=1): 25.00
IRLS QoL Total (Absolute Change) Median (RLS subjects [2]; VISIT WEEK 8, N=1): 25.00
IRLS QoL Total (Percent Change) Mean (RLS subjects [2]; VISIT WEEK 8, N=1): 37.04%
IRLS QoL Total (Percent Change) Median (RLS subjects [2]; VISIT WEEK 8, N=1): 37.04%
IRLS QoL Total Mean (RLS subjects [2]; VISIT WEEK 8, N=1): 92.50
IRLS QoL Total Median (RLS subjects [2]; VISIT WEEK 8, N=1): 92.50
improvement in the IRLS Quality of Life Questionnaire compared to baseline (RLS subjects [2]; by eight weeks, remaining subject): 37%
most commonly reported adverse events [3]: pain, headache and dizziness
side effects typical of dopaminergic medications (hallucinations, somnolence, edema, nausea, vomiting, diarrhea) [3]: infrequently reported
IRLSSG values, change from starting value ([4]; 0.5 mg and 1 mg groups, in comparison with the placebo group): significant improvement
subjective symptoms (tingling, cramps and pain in the legs, restlessness, difficulties falling or remaining asleep) ([4]; end of treatment, both patient groups): either disappear or diminish to a tolerable minimum
hallucinations, somnolence, edema, nausea, vomiting or diarrhea ([4]; patient reports): does not or only to a very minimal extent causes
clinical improvement ([4]; patients in a moderate to severe stage of RLS): distinct clinical improvement
tolerability and safety ([4]; patients with moderate to severe RLS): well tolerated and safe
